Data reported in patent publication US20240309014A1, “MACROCYCLIC COMPOUNDS AND USES THEREOF” (President and Fellows of Harvard College, priority 2017, published 2024).

What was measured:
[1] = test system: L-1210 Leukemia; settings: cited from earlier work
[2] = test system: tubulin protein purified from porcine brain; test: Cell-free tubulin polymerization assay; assay type: biochemical; settings: final concentrations 0.625-10 μmol/L
Protocol: Tubulin Polymerization Assay kit was purchased from Cytoskeleton, Inc. (Cat.#BKO11P). The kit contained 1 bottle of lyophilized tubulin protein purified from porcine brain, 3 tubes of lyophilized GTP, 2 bottles of lyophilized assay buffer, and 1 bottle of tubulin glycerol buffer. Assay buffer was prepared by dissolving the contents in 10 mL of deionized and sterilized water. This solution contained 80 mmol/L piperazine-N,N′-bis[2-ethanesulfonic acid] sesquisodium salt, 2.0 mmol/L magnesium chloride, 0.5 mmol/L ethylene glycol-bis(2-amino-ethyl ether) N,N,N′,N-tetra-acetic acid, pH 6.9, and 10 μmol/L fluorescent reporter.
The buffer was stored at −70° C. until use. […]
In the tubulin polymerization assay, reaction mixture was prepared by mixing 820 µL of assay buffer, 17.6 μL of GTP stock solution, and 600 μL of tubulin glycerol buffer. […] Fluorescence emission at 460 nm (excitation wavelength at 360 nm) was measured every 2 minutes for 90 minutes using the SpectraMax® M5e microplate reader (Molecular Devices). Tubulin polymerization was followed by fluorescence enhancement due to the incorporation of a fluorescence reporter into microtubules as polymerization occurred. […]

[3] = test system: human endometrial cancer cell line HEC-108 xenograft; test: HEC-108 endometrial cancer xenograft as monotherapy (FIG. 18); assay type: in vivo, athymic mice; settings: 180 μg/kg i.v. Day 1 and Day 8
Protocol: A human endometrial cancer cell line HEC-108, which had been cultured in an E-MEM containing 15% FBS and antibiotics were adjusted to a concentration of 7.14×10^7 cells/mL with medium to prepare a cell suspension. The cell suspension was inoculated in a volume of 150 μL into a subcutaneous part of a right flank of athymic mice (CAnN.Cg-Foxnlnu/CrlCrlj, female, 6 weeks old, Charles River Japan Inc.). Thirteen days after cell inoculation (Day 1), the length and the width of a tumor in each mouse were measured by using an electronic digital caliper (Mitutoyo Corporation), so as to calculate the volume of the tumor in accordance with the following calculation formula: […]
On the basis of TV, the mice were randomly grouped (Day 1). Each group was consisted in six mice. Compound (1) was dissolved in DMSO and a solution was stored in the freezer before use. Compound (1) (180 μg/kg) was diluted in saline and intravenously injected on Day 1 and Day 8.

Compound	activity against L-1210 Leukemia in vivo [1]	effect on tubulin polymerization [2]	antitumor activity [3]
C=C1C[C@@H]2CC[C@@]34C[C@H]5O[C@H]6[C@@H](O3)[C@H]3O[C@H](CC[C@@H]3O[C@H]6[C@H]5O4)CC(=O)O[C@@H]3[C@@H](C)[C@@H]4O[C@@H]5C[C@]6(C[C@@H]7O[C@]8(C[C@H](C)[C@@H]9O[C@H]([C@@H](O)C[C@@H](O)CO)C[C@@H]9O8)C[C@H](C)[C@@H]7O6)O[C@@H]5C[C@@H]4O[C@H]3C[C@H]3O[C@@H](CC[C@@H]1O2)C[C@@H](C)C3=C [Halichondrin B, reference compound]	highly active		
C=C1C[C@@H]2CC[C@@]34C[C@H]5O[C@H]6[C@@H](O3)[C@H]3O[C@H](CC[C@@H]3O[C@H]6C5O4)CC(=O)O[C@@H]3[C@@H](C)[C@@H]4O[C@@H]5C[C@]6(C[C@@H]7O[C@]8(C[C@H](C)[C@@H]9O[C@H](CN)[C@H](O)C[C@@H]9O8)C[C@H](C)[C@@H]7O6)O[C@@H]5C[C@@H]4O[C@H]3C[C@H]3O[C@@H](CC[C@@H]1O2)C[C@@H](C)C3=C (stereo in doubt) [Compound (1)]		inhibited tubulin polymerization in a concentration-dependent manner	tumor growth delay
